Measured values from ChEMBL document CHEMBL5356995, “Aurones and derivatives as promising New Delhi metallo-β-lactamase (NDM-1) inhibitors” (Bioorg Med Chem, 2024).

Columns and labels:
Bacteria [1] = assay: Inhibition of bacterial IMP-1 assessed as substrate hydrolysis at 50 uM using imipenem as substrate by spectrophotometric analysis relative to control
Bacteria [2] = assay: Inhibition of bacterial VIM-2 assessed as substrate hydrolysis at 50 uM using imipenem as substrate by spectrophotometric analysis relative to control
[3] = biological target: Metallo-beta-lactamase type 2 (Bacteria) (UniProt C7C422); assay: Inhibition of bacterial NDM-1 assessed as substrate hydrolysis at 50 uM using imipenem as substrate by spectrophotometric analysis relative to control
Chain of Metallo-beta-lactamase type 2 (Bacteria) (C7C422 whole entry): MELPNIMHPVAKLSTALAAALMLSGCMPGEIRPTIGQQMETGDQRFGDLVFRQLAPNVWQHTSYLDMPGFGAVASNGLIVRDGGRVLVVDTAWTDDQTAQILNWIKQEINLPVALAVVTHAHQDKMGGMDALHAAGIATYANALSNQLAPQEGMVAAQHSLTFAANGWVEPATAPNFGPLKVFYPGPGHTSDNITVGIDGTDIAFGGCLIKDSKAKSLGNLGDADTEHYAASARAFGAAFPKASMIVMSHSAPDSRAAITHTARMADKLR

| inhibition (Bacteria [1]) [%] | inhibition (Bacteria [2]) [%] | inhibition [3] [%] | Structure (SMILES) |
| --- | --- | --- | --- |
| 39 | < 10 | 18 | Cn1cc(/C=C2\Oc3cc(O)ccc3C2=O)c2cc(Br)ccc21 |
| 24.9 | < 10 | 55 | CCc1ccc(/C=C2\Oc3cc(O)cc(O)c3C2=O)cc1 |
| 14 | < 10 | 11 | O=C1/C(=C/c2ccc(Cl)cc2)Oc2cc(O)cc(O)c21 |
| 41 | > 98 | > 98 | NCCN[C@H]1CC[C@@H](CC(=O)N[C@H]2Cc3cccc(C(=O)O)c3OB2O)CC1 |
| 12.4 | < 10 | < 10 | O=C1/C(=C/c2ccc(O)cc2)Oc2cc(O)cc(O)c21 |
| < 10 | < 10 | < 10 | COc1ccc(/C=C2\Oc3cc(OC)cc(OC)c3C2=O)c(OC)c1 |
|  |  | 46 | CCCCOc1ccc(/C=C2\Oc3cc(O)cc(O)c3C2=O)c(O)c1 |
| 28 | < 10 | 11.2 | CC(C)(C)CCn1cc(/C=C2\Oc3cc(O)cc(O)c3C2=O)c2ccccc21 |
| 25 | < 10 | 41 | CCCCOc1ccc(/C=C2\Oc3cc(O)cc(O)c3C2=O)cc1 |
| < 10 | < 10 | 20 | COc1ccc(/C=C2\Oc3c(O)cccc3C2=O)cc1 |
| 13 | 14 | < 10 | COc1cc(/C=C2\Oc3cc(O)ccc3C2=O)ccc1O |
| 23 | < 10 | < 10 | O=C1/C(=C/c2cn(Cc3ccccc3Br)c3ccccc23)Oc2cc(O)cc(O)c21 |
| 21.4 | < 10 | < 10 | Cn1cc(/C=C2\Oc3cccc(O)c3C2=O)c2cc(Br)ccc21 |
| < 10 | < 10 | < 10 | O=C1/C(=C/c2ccccc2O)Oc2cc(O)ccc21 |
| 20 | < 10 | 14 | COc1ccc(/C=C2\Oc3cc(O)cc(O)c3C2=O)c(OC)c1OC |
| 32 | < 10 | 35 | COc1cc(OC)c2c(c1)O/C(=C\c1ccc(F)cc1F)C2=O |
| < 10 | < 10 | 24 | O=C(O)c1ccc(/C=C2\Oc3c(O)cccc3C2=O)cc1 |
| 12 | < 10 | < 10 | CN1CCN(c2ccc(/C=C3\Oc4cccc(O)c4C3=O)cc2)CC1 |
| 16 | < 10 | < 10 | C=CCn1cc(/C=C2\Oc3cc(O)cc(O)c3C2=O)c2ccccc21 |
| < 10 | < 10 | < 10 | O=C1/C(=C/c2ccc(O)cc2O)Oc2ccccc21 |
| 17 | < 10 | < 10 | COc1cc(OC)c2c(c1)O/C(=C\c1ccc(OC)c(OC)c1OC)C2=O |
| < 10 | < 10 | < 10 | O=C1/C(=C/c2ccc(O)cc2O)Oc2cc(O)ccc21 |
| < 10 | < 10 | 16 | O=C1/C(=C/c2ccc(C3CCCCC3)cc2)Oc2cc(O)cc(O)c21 |
| 14 | < 10 | < 10 | O=C1/C(=C/c2ccc(O)cc2O)Oc2cc(O)cc(O)c21 |
| 46 | < 10 | 49 | CC[C@H](C)Cn1cc(/C=C2\Oc3cc(O)cc(O)c3C2=O)c2ccccc21 |
| 24 | < 10 | 20 | O=C1/C(=C/c2ccc(O)cc2O)Oc2c1ccc(O)c2O |
| 17.9 | < 10 | 17 | COc1ccc(/C=C2\Oc3cc(O)ccc3C2=O)c(OC)c1 |
| 24 | < 10 | 39 | COc1cc(OC)c2c(c1)O/C(=C\c1ccc(-c3cccs3)cc1)C2=O |

| Structure (SMILES) | inhibition (Bacteria [1]) [%] | inhibition (Bacteria [2]) [%] | inhibition [3] [%] |
| --- | --- | --- | --- |
| COc1ccc(/C=C2\Oc3cc(O)cc(O)c3C2=O)cc1OC | 21 | < 10 | 23 |
